Here are results for 9 molecules from PMC10258912, “Synthesis and Molecular Docking of New N-Acyl Hydrazones-Benzimidazole as hCA I and II Inhibitors” (Medicinal Chemistry (Shariqah (United Arab Emirates), 2023).

In test [1] the target is T1, hCA II (Homo sapiens, UniProt P00918).
T1 construct: made in house
The test can be described thus: hCA II hydratase activity inhibition assay (Wilbur-Anderson method). The settings on record: for relative inhibitory activity hCA II versus hCA I: comparison of IC50 values on hCA I and hCA II. Format: biochemical. The procedure:
(§1) Purification of hCA I and hCA II by affinity chromatography was performed as described in the previous work.
(§2) The Wilbur-Anderson method, as modified by Wilber et al., was used to calculate CA activity. With the help of a bromothymol blue indicator and a measurement of the passing time, the pH changes were calculated using this approach, which causes the hydration of CO2 to release H^+ ions. The equation (to-tc/tc), where to and tc are the times for pH change of the enzymatic and nonenzymatic processes, respectively, was used to compute the enzyme unit (EU).
(§3) While keeping the concentration of the substrate constant, IC50 values for the various compounds were computed. Enzyme activities in the absence of inhibitors in the medium were taken as 100% activity. By assessing the hydratase activity in the presence of various inhibitor concentrations, the activity % values of enzymes were calculated. Utilizing graphs of activity %-[I] for each inhibitor, the IC50 value was determined. The Cheng-Prusoff equation was used to derive inhibition constants using the nonlinear least squares method.

Test [2] concerns the target T2, hCA I (Homo sapiens, UniProt P00915).
T2 construct: made in house
The test can be described thus: hCA I hydratase activity inhibition assay (Wilbur-Anderson method). As to conditions: for Ki: Cheng-Prusoff equation. Format: biochemical. As for the experimental part: as §1, §2, §3

[3] abbreviates: hydratase activity, constant substrate concentration, read-out: IC50 hCA I.

Like-named read-outs stand apart in the source and are kept apart here.

T2 sequence (P00915 whole entry): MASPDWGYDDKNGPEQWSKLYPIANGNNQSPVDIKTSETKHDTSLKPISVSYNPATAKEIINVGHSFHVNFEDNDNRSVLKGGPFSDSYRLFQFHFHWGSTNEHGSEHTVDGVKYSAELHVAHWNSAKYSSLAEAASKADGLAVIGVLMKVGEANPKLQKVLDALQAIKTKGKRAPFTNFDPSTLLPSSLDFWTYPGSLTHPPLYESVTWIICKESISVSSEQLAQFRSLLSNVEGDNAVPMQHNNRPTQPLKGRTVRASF

Consider “N-(1H-benzimidazole-2-yl)-N’-benzylidenebenzo hydrazide [Compound 3a]”, for which the “relative inhibitory activity hCA II versus hCA I” value in test [1] is listed as “more inhibitory activity on hCA II than hCA I”. Same read-out and setting: the result for `CCOc1ccc(C=NNC(=O)c2ccc(-c3nc4ccccc4[nH]3)cc2)cc1` [Compound 3i, 4-(1H-benzimidazole-2-yl)-N’-(4-ethoxybenzylidene) benzohydrazide] reads “more inhibitory activity on hCA II than hCA I”. Regarding `COc1ccc(C=NNC(=O)c2ccc(-c3nc4ccccc4[nH]3)cc2)cc1` [Compound 3k, 4-(1H-benzimidazole-2-yl)-N’-(4-methoxybenzylidene)benzohydrazide], the “relative inhibitory activity hCA II versus hCA I” value in test [1] is recorded as “more inhibitory activity on hCA II than hCA I”. The term IC50 denotes the concentration needed to halve the response being measured. As for `O=C(NN=Cc1ccc(F)cc1)c1ccc(-c2nc3ccccc3[nH]2)cc1` [Compound 3l, 4-(1H-benzimidazole-2-yl)-N’-(4-fluorobenzylidene)benzohydrazide], the “relative inhibitory activity hCA II versus hCA I” value in test [1] is “fairly close inhibitory properties on hCA I and hCA II”. Besides, the IC50 stood at 2.74 µM in test [1] (hydratase activity, constant substrate concentration) and 2.72 µM in test [2] (setting [3]).

As to `O=C(NN=Cc1ccc(OCc2ccccc2)cc1)c1ccc(-c2nc3ccccc3[nH]2)cc1` [Compound 3j, 4-(1H-benzimidazole-2-yl)-N’-(4-(benzyloxy)benzylidene)benzohydrazide], the IC50 in test [2] (setting [3]) came to 1.95 µM. For the molecule `CCN(CC)c1ccc(C=NNC(=O)c2ccc(-c3nc4ccccc4[nH]3)cc2)cc1` [Compound 3c, 4-(1H-benzimidazole-2-yl)-N’-(4-(diethylamino)benzylidene)benzohydrazide], in test [2], inhibition was half-maximal at 2.09 µM (IC50). Broadly, the Ki is the dissociation constant of the complex between target and ligand, obtained from inhibition or displacement. Low readings indicate a stronger hold on the target, high ones a looser hold on the target. With `O=C(NN=Cc1ccc([N+](=O)[O-])cc1)c1ccc(-c2nc3ccccc3[nH]2)cc1` [Compound 3n, 4-(1H-benzimidazole-2-yl)-N’-(4-nitrobenzylidene) benzohydrazide], in test [1], the “relative inhibitory activity hCA II versus hCA I” value was “more inhibitory activity on hCA II than hCA I”. The same molecule registered an inhibition constant (Ki) in test [2] of 0.956 µM. With `Cc1ccc(C=NNC(=O)c2ccc(-c3nc4ccccc4[nH]3)cc2)cc1` [Compound 3p, 4-(1H-benzimidazole-2-yl)-N’-(4-methylbenzyli-dene) benzohydrazide], in test [2], the “type of inhibition, hCA I” value was “noncompetitive” and the affinity, expressed as Ki, was 0.299 ± 0.01 µM. In test [2] (setting [3]), the IC50 is 1.68 µM. Consider `CC(C)c1ccc(C=NNC(=O)c2ccc(-c3nc4ccccc4[nH]3)cc2)cc1` [Compound 3d, 4-(1H-benzimidazole-2-yl)-N’-(4-isopropylbenzylidene)benzohydrazide], for which the IC50 in test [2] (setting [3]) is 1.87 µM.
